27 molecules from patent publication US20120149662A1, “Heterocyclic Compounds as Janus Kinase Inhibitors” (BioCryst Pharmaceuticals, Inc., priority 2009, published 2012) can be followed below.

Some results are limits rather than exact numbers.

The assay addresses JAK3 (JH1domain-catalytic) kinase and other members of the JAK family. Nature of the assay: Test A: IC50 determination against JAK family kinases (Fabian et al. 2005 / Karaman et al. 2008 assay). It is filed as binding. The settings on record: 11 point dose response curves in triplicate; JAK family member not given; read-out: Activity (IC50) for JAK Family of Enzymes. Here is the method:
The ability of a compound of the invention to bind to JAK3 may be determined using pharmacological models which are well known to the art, or using Test A described below.
Inhibition constants (IC50s) were determined against JAK3 (JH1domain-catalytic) kinase and other members of the JAK family. Assays were performed as described in Fabian et al. (2005) Nature Biotechnology, vol. 23, p. 329 and in Karaman et al. (2008) Nature Biotechnology, vol. 26, p. 127 Inhibition constants were determined using 11 point dose response curves which were performed in triplicate. Table 1 shown below lists compounds of the invention and their respective IC50 values.
With `CCOC(C)n1cc(-c2cnnc3[nH]ccc23)cn1` (stereo not drawn) [Compound 32c, 4-(1-(1-ethoxyethyl)-1H-pyrazol-4-yl)-7H-pyrrolo[2,3-c]pyridazine], the IC50 was > 10 µM.

`N#CCC[C@H](C1CCCC1)n1cc(-c2cnnc3[nH]ccc23)cn1` [Compound 62b, (R)-4-(4-(7H-pyrrolo[2,3-c]pyridazin-4-yl)-1H-pyrazol-1-yl)-4-cyclopentyl butanenitrile]: the IC50 was < 5 µM.

In the case of `N#CC[C@H](C1CCCCC1)n1cc(-c2cnnc3[nH]ccc23)cn1` [Compound 58d, (R)-3-(4-(7H-pyrrolo[2,3-c]pyridazin-4-yl)-1H-pyrazol-1-yl)-3-cyclohexylpropanenitrile], the half-inhibitory concentration (IC50) is < 5 µM.

Turning to `N#CCC1(n2cc(-c3cnnc4[nH]ccc34)cn2)CCCC1` [Compound 48d, 2-(1-(4-(7H-pyrrolo[2,3-c]pyridazin-4-yl)-1H-pyrazol-1-yl)cyclopentyl)acetonitrile], the 50% inhibitory concentration (IC50) was < 5 µM.

As to `N#CC[C@]1(n2cc(-c3cnnc4[nH]ccc34)cn2)C[C@H](C#N)C1` [Compound 60g, (E)-3-(4-(7H-pyrrolo[2,3-c]pyridazin-4-yl)-1H-pyrazol-1-yl)-3-(cyanomethyl)cyclobutanecarbonitrile], the IC50 is < 5 µM.

`N#CC[C@H](c1ccccc1)n1cc(-c2cnnc3[nH]ccc23)cn1` [Compound 67d, (R)-3-(4-(7H-pyrrolo[2,3-c]pyridazin-4-yl)-1H-pyrazol-1-yl)-3-phenylpropane nitrile]: the IC50 is < 5 µM.

Take `N#CCC(CC1CCCC1)n1cc(-c2cnnc3[nH]ccc23)cn1` (stereo not drawn) [Compound 51e, 3-(4-(7H-pyrrolo[2,3-c]pyridazin-4-yl)-1H-pyrazol-1-yl)-4-cyclopentylbutane nitrile]: the IC50 was < 5 µM.

Consider `N#CCC(CC1CCCCC1)n1cc(-c2cnnc3[nH]ccc23)cn1` (stereo not drawn) [Compound 52e, 3-(4-(7H-pyrrolo[2,3-c]pyridazin-4-yl)-1H-pyrazol-1-yl)-4-cyclohexylbutane nitrile], for which the IC50 was < 5 µM.

`N#CCC(CC1CC1)n1cc(-c2cnnc3[nH]ccc23)cn1` (stereo not drawn) [Compound 57e, 3-(4-(7H-pyrrolo[2,3-c]pyridazin-4-yl)-1H-pyrazol-1-yl)-4-cyclopropylbutane nitrile]: the IC50 is < 5 µM.

Take `CC(C)(C)OC(=O)N1CC(CC#N)(n2cc(-c3cnnc4[nH]ccc34)cn2)C1` [Compound 45d, tert-butyl 3-(4-(7H-pyrrolo[2,3-c]pyridazin-4-yl)-1H-pyrazol-1-yl)-3-(cyanomethyl)azetidine-1-carboxylate]: the IC50 was > 10 µM.

As for `N#CCC1(n2cc(-c3cnnc4[nH]ccc34)cn2)CCCCC1` [Compound 56d, 2-(1-(4-(7H-pyrrolo[2,3-c]pyridazin-4-yl)-1H-pyrazol-1-yl)cyclohexyl)acetonitrile], the IC50 is < 5 µM.

As for `N#CC[C@@H](C1CCCC1)n1cc(-c2cnnc3[nH]ccc23)cn1` [Compound 44d, (S)-3-(4-(7H-pyrrolo[2,3-c]pyridazin-4-yl)-1H-pyrazol-1-yl)-3-cyclopentyl propanenitrile], the IC50 was < 5 µM.

As for `CC(C)(C)C(=O)OCn1ccc2c(-c3cn[nH]c3)cnnc21` [Compound 43a, (4-(1H-pyrazol-4-yl)-7H-pyrrolo[2,3-c]pyridazin-7-yl)methyl pivalate], the IC50 was > 10 µM.

`N#CCC(C1CC1)n1cc(-c2cnnc3[nH]ccc23)cn1` (stereo not drawn) [Compound 53d, 3-(4-(7H-pyrrolo[2,3-c]pyridazin-4-yl)-1H-pyrazol-1-yl)-3-cyclopropylpropane nitrile]: the IC50 was < 5 µM.

In the case of `N#CC[C@H](C1CCCC1)n1cc(-c2cnnc3[nH]ccc23)cn1` [Compound 43g, (R)-3-(4-(7H-pyrrolo[2,3-c]pyridazin-4-yl)-1H-pyrazol-1-yl)-3-cyclopentylpropanenitrile], the IC50 was < 5 µM.

In the case of `N#CCC(C1CCCC1)n1cc(-c2cnnc3[nH]ccc23)cn1` (stereo not drawn) [Compound 34j, 3-(4-(7H-pyrrolo[2,3-c]pyridazin-4-yl)-1H-pyrazol-1-yl)-3-cyclopentylpropanenitrile], the IC50 is < 5 µM.

For `NC(=O)c1c[nH]c2nnnc(O)c12` [Compound 70c, 4-hydroxy-7H-pyrrolo[2,3-d][1,2,3]triazine-5-carboxamide], the IC50 was > 10 µM.

As for `CCS(=O)(=O)N1CC(CC#N)(n2cc(-c3cnnc4[nH]ccc34)cn2)C1` [Compound 49c, 2-(3-(4-(7H-pyrrolo[2,3-c]pyridazin-4-yl)-1H-pyrazol-1-yl)-1-(ethylsulfonyl)azetidin-3-yl)acetonitrile], the concentration for half-maximal inhibition (IC50) is < 5 µM.

For `N#CCC1(n2cc(-c3cnnc4[nH]ccc34)cn2)COC1` [Compound 46c, 2-(3-(4-(7H-pyrrolo[2,3-c]pyridazin-4-yl)-1H-pyrazol-1-yl)oxetan-3-yl)acetonitrile], the 50% inhibitory concentration (IC50) is < 10 µM.

`N#CCC1(n2cc(-c3cnnc4[nH]ccc34)cn2)CCC1` [Compound 55d, 2-(1-(4-(7H-pyrrolo[2,3-c]pyridazin-4-yl)-1H-pyrazol-1-yl)cyclobutyl)acetonitrile]: the IC50 is < 5 µM.

As to `N#CC[C@]1(n2cc(-c3cnnc4[nH]ccc34)cn2)C[C@@H](C#N)C1` [Compound 60f, (Z)-3-(4-(7H-pyrrolo[2,3-c]pyridazin-4-yl)-1H-pyrazol-1-yl)-3-(cyanomethyl)cyclobutanecarbonitrile], the IC50 was < 5 µM.

Regarding `N#CC[C@H](CC1CCCC1)n1cc(-c2cnnc3[nH]ccc23)cn1` [Compound 59d, (S)-3-(4-(7H-pyrrolo[2,3-c]pyridazin-4-yl)-1H-pyrazol-1-yl)-4-cyclopentylbutanenitrile], the IC50 was < 5 µM.

Consider `N#CC[C@H](c1cccc(O)c1)n1cc(-c2cnnc3[nH]ccc23)cn1` [Compound 68f, (R)-3-(4-(7H-pyrrolo[2,3-c]pyridazin-4-yl)-1H-pyrazol-1-yl)-3-(3-hydroxyphenyl)propanenitrile], for which the 50% inhibitory concentration (IC50) was < 5 µM.

In the case of `c1ccc(-c2cnnc3[nH]ccc23)cc1` [Compound 50a, 4-phenyl-7H-pyrrolo[2,3-c]pyridazine], the IC50 is > 10 µM.

For `c1cc2c(-c3cn[nH]c3)cnnc2[nH]1` [Compound 31m, 4-(1H-pyrazol-4-yl)-7H-pyrrolo[2,3-c]pyridazine], the IC50 is > 10 µM.

As for `N#CCC(C1CCCCC1)n1cc(-c2cnnc3[nH]ccc23)cn1` (stereo not drawn) [Compound 47d, 3-(4-(7H-pyrrolo[2,3-c]pyridazin-4-yl)-1H-pyrazol-1-yl)-3-cyclohexylpropane nitrile], the half-inhibitory concentration (IC50) is < 5 µM.

Turning to `N#CCC(C1CCC1)n1cc(-c2cnnc3[nH]ccc23)cn1` (stereo not drawn) [Compound 54e, 3-(4-(7H-pyrrolo[2,3-c]pyridazin-4-yl)-1H-pyrazol-1-yl)-3-cyclobutylpropane nitrile], the half-inhibitory concentration (IC50) was < 5 µM.
